Where two headings read alike, the source gives them in different places.
Tests used:
USP7 = USP7 (Homo sapiens, UniProt Q93009); assay: Ub-Rho cleavage assay; format: biochemical; settings: Ub-Rho substrate, recombinant USP7; read-out: Ub (Rho) USP7.1 (IC50)
Method: All fluorescence measurements were performed on a Molecular Devices FlexStation3 with excitation at 480 nm and emission 540 nm, PMT Gain: Medium, Flash Number: 10. […] Assay buffer for all measurements was 50 mM HEPES, 100 mM NaCl, 0.5 mM EDTA, 1 mM TCEP, 0.1 mg/ml BSA, 0.01% Tween-20, pH 7.8. […] Serial dilutions were made with a Mosquito HTS (SPT Labtech) nanoliter liquid handler. 200 nL of each compound in duplicate or DMSO control were transferred to the assay plate. The first two columns served as positive controls. 9.8 μl per well of USP7 working solution was added to the assay plate. Compound+Protein was incubated for 25 min at 25° C. 10 uL of Ub-Rho substrate was added per well and incubated for an additional 15 min at 25° C. Fluorescence was then measured. Percent response relative to DMSO controls was calculated in GraphPad or Scinamic, and the data was fitted to a non-linear regression to determine IC50 values.

USP7 CD + UBL 1-5 = biological target: T1, USP7 CD + UBL 1-5 (Homo sapiens, UniProt Q93009); assay: Surface plasmon resonance assay (SPR); format: binding
T1 construct: USP7 CD +
Method: The surface plasmon resonance experiments were performed using a Cytiva (formerly GE Healthcare) Biacore 8K equipped with a Series S Sensor Chip SA. The ligands were immobilized via a biotin-modified biotin acceptor peptide. USP7 Ligands were diluted in running buffer (HBS-P+2% DMSO; 10 mM HEPES, pH 7.4, 150 mM NaCl, 1 mM DTT, 0.05% P20, 2% DMSO) to 100 μg/mL and injected at […] until a density between 500-10,000 RU was reached on flow-cell two of each channel, and flow cell one was left blank to serve as a reference surface. Both surfaces were washed until a stable baseline was achieved then 30 startup cycles to condition the surface. To collect kinetic and steady-state binding data, the small molecule analytes were prepared in three-fold dilution series in HBS-P+2% DMSO running buffer. Analytes were injected over both flow cells at a flow rate of […] at 25° C. The complex was allowed to associate for 60 seconds and dissociate for 300 seconds. Data were collected at 10 Hz. The data were fit to a simple 1:1 interaction model global data analysis within Cytiva Biacore Insight Evaluation Software.

[1] = steady-state KD, read-out: SPR USP7 CD + UBL 1-5 (KD_ss)
[2] = kinetic KD, read-out: SPR USP7 CD + UBL 1-5 (KD_kinetic)

Sequence of USP7 (Q93009 whole entry): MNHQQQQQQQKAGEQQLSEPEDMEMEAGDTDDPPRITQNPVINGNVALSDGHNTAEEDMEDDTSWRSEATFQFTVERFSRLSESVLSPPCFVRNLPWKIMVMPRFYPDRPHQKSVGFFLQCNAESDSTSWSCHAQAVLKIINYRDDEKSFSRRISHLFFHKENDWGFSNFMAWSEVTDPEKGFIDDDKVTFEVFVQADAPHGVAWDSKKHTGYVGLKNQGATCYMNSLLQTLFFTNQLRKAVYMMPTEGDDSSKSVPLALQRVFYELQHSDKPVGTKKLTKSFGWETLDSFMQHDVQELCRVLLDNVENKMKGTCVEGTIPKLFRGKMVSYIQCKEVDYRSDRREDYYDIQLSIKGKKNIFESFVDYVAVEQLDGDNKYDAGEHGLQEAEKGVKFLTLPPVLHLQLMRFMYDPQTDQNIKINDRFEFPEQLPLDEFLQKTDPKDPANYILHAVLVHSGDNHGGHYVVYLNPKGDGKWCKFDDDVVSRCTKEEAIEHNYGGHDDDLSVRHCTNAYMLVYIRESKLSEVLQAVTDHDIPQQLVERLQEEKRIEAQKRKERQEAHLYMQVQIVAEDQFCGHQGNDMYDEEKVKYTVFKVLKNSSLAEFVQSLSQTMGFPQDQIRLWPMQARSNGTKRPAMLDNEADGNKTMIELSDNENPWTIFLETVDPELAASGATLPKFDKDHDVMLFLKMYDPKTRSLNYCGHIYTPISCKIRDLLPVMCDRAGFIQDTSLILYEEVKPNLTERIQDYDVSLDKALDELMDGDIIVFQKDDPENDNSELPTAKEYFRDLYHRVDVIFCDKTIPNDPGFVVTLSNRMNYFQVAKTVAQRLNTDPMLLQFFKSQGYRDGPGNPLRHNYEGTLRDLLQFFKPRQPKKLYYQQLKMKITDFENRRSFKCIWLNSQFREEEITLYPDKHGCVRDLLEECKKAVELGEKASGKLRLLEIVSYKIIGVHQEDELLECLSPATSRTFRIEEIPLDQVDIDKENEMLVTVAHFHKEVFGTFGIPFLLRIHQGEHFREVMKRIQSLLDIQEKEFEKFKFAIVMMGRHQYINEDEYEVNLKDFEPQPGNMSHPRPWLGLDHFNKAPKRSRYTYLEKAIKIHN
T1 sequence (Q93009 208-1102 limits assumed): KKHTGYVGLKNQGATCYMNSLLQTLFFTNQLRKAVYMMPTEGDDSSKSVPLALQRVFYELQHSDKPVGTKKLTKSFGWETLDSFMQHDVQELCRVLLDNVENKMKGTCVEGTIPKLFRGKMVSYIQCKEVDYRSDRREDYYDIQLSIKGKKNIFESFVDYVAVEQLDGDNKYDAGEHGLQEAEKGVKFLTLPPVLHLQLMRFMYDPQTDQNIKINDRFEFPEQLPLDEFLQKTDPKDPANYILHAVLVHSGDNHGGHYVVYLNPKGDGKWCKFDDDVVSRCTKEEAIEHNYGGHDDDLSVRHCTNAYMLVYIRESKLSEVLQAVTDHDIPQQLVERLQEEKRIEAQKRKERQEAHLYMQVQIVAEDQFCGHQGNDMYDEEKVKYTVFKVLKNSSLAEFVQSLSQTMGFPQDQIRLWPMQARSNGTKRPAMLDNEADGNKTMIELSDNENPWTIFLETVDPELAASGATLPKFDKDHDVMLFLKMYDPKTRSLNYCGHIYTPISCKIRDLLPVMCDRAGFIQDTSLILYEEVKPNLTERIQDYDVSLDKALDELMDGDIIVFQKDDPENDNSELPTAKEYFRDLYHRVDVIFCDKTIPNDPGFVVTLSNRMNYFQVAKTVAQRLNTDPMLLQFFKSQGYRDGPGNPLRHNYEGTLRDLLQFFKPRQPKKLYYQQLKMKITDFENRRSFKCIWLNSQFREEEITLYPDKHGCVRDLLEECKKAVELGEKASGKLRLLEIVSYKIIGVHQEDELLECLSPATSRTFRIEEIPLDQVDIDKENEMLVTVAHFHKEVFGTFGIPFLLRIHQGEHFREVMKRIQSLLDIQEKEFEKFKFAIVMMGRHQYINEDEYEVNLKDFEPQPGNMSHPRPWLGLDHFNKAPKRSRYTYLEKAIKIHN

Structure (SMILES) | IC50 (USP7) | Kd (USP7 CD + UBL 1-5; [1]) | Kd (USP7 CD + UBL 1-5; [2])
O=C(Nc1nc2ccc(NS(=O)(=O)c3cccs3)cc2s1)c1ccco1 [U68] | > 100000 nM | 1000 to 100000 nM | 
CN1CCCn2nc(C(=O)Nc3nc4ccc(NS(=O)(=O)c5ccccn5)cc4s3)cc2C1 [U104] | > 100000 nM | 1000 to 100000 nM | 
CN1CCCn2nc(C(=O)Nc3nc4ccc(NS(=O)(=O)c5nnc[nH]5)cc4s3)cc2C1 [U116] | > 100000 nM | 1000 to 100000 nM | 
CN1CCC(C(=O)Nc2nc3ccc(NS(=O)(=O)CC4CC4)cc3s2)CC1 [U74] | > 100000 nM | 1000 to 100000 nM | 
CN1CCCn2nc(C(=O)Nc3nc4ccc(NCc5c[nH]cn5)cc4s3)cc2C1 [U114] | > 100000 nM | > 100000 nM | 
CN1CCCn2nc(C(=O)Nc3nc4ccc(NS(=O)(=O)c5cnccn5)cc4s3)cc2C1 [U106] | > 100000 nM | > 100000 nM | 
CN1CCCn2nc(C(=O)Nc3nc4ccc(NS(=O)(=O)c5cn6c(n5)CCC6)cc4s3)cc2C1 [U102] | > 100000 nM | 1000 to 100000 nM | 
Cc1cc(Cl)cc(-c2ccnc3cc(CN4C(=O)CCC4=O)sc23)c1OC1CCN(C(=O)OC(C)(C)C)CC1 [U15] | > 100000 nM | 1000 to 100000 nM | 1000 to 100000 nM
CS(=O)(=O)c1nccc(Nc2nc3ccc(NS(=O)(=O)c4cccs4)cc3s2)n1 [U80] | > 100000 nM | 1000 to 100000 nM | 
C[C@H](CC(=O)N1CCC(O)(Cn2cnc(N3CCN(CCN)CC3)cc2=O)CC1)c1ccccc1 [U59] | 1000 to 100000 nM | < 1000 nM | 
CCc1c(-c2ccc(O)cc2)cnc(NCCN=[N+]=[N-])c1-c1ccc(C(=O)NC)nc1 [U71] | 1000 to 100000 nM | < 1000 nM | 
CCc1c(-c2ccc(C(=O)NCCCNC(=O)CCOCCOCCNC(=O)OC(C)(C)C)nc2)cnc(N)c1-c1ccc(O)cc1 [U56] | 1000 to 100000 nM | 1000 to 100000 nM | 
CN1CCN(C(=O)Nc2nc3ccc(NS(=O)(=O)c4cccs4)cc3s2)CC1=O [U123] | > 100000 nM | > 100000 nM | 
C=CS(=O)(=O)Nc1ccccc1-c1ccc(C(=O)N2CCC(O)(Cn3cnc4c(cnn4C)c3=O)CC2)cc1 [U27] |  | 1000 to 100000 nM | 
CN1CCCn2nc(C(=O)Nc3nc4ccc(NS(=O)(=O)c5nn6ccccc6c5Cl)cc4s3)cc2C1 [U121] | > 100000 nM | 1000 to 100000 nM | 
CCc1c(-c2ccc(C(=O)NC)cc2)cnc(NC(=O)CN)c1-c1ccc(O)cc1 [U48] | > 100000 nM | 1000 to 100000 nM | 
CCc1c(-c2ccc(O)cc2)cnc(C=O)c1-c1ccc(O)cc1 [U64] | 1000 to 100000 nM | 1000 to 100000 nM | 

Structure (SMILES) | IC50 (USP7) | Kd (USP7 CD + UBL 1-5; [1]) | Kd (USP7 CD + UBL 1-5; [2])
CN1CCCn2nc(C(=O)Nc3nc4ccc(N[S+]([O-])c5cccs5)cc4s3)cc2C1 (centres unmarked) [U113] | > 100000 nM | 1000 to 100000 nM | 
CCc1c(-c2ccc(C(=O)NC)nc2)ccc(CNCCNC(=O)OC(C)(C)C)c1-c1ccc(O)cc1 [U43] | 1000 to 100000 nM | 1000 to 100000 nM | 
CN(C)Cc1cc(C(=O)Nc2nc3ccc(NS(=O)(=O)c4cccs4)cc3s2)nn1C [U101] | > 100000 nM | 1000 to 100000 nM | 
O=C(O)c1ccnc(Nc2nc3ccc(NS(=O)(=O)c4cccs4)cc3s2)n1 [U85] | > 100000 nM | > 100000 nM | 
CN1CCC(C(=O)Nc2nc3cc(NS(=O)(=O)c4cccs4)ccc3s2)CC1 [U88] | > 100000 nM | > 100000 nM | 
O=C(Nc1nc2ccc(NS(=O)(=O)c3cccs3)cc2s1)N1CCOCC1 [U126] | > 100000 nM | 1000 to 100000 nM | 
CCc1c(-c2ccc(C(=O)NCCOCCOCCOCCNC(=O)OC(C)(C)C)nc2)ccc(N)c1C1=CC=C(O)CC1 [U44] | 1000 to 100000 nM | 1000 to 100000 nM | 
CN1CCCn2nc(C(=O)Nc3nc4ccc(NS(=O)(=O)c5ccncc5)cc4s3)cc2C1 [U109] | > 100000 nM | > 100000 nM | 
CCc1c(-c2ccc(C(=O)NCCCNC(=O)CCCCCCNC(=O)OC(C)(C)C)nc2)cnc(N)c1-c1ccc(O)cc1 [U51] | > 100000 nM | 1000 to 100000 nM | 
CCc1c(-c2ccc(C(=O)NCCOCCOCCOCCN=[N+]=[N-])nc2)cnc(N)c1-c1ccc(O)cc1 [U10] | 1000 to 100000 nM | 1000 to 100000 nM | 1000 to 100000 nM
CN1CCC(C(=O)Nc2nc3ccc(NS(=O)(=O)c4ccc5c(c4)CC(=O)N5C)cc3s2)CC1 [U72] | > 100000 nM | > 100000 nM | 
CCc1c(-c2ccc(C(=O)NCCCNC(=O)CCCCCCCCNC(=O)OC(C)(C)C)nc2)cnc(N)c1-c1ccc(O)cc1 [U54] | > 100000 nM | 1000 to 100000 nM | 
CC(=O)N1CCCn2nc(C(=O)Nc3nc4ccc(NS(=O)(=O)c5cccs5)cc4s3)cc2C1 [U96] | > 100000 nM | 1000 to 100000 nM | 
Cc1nocc1S(=O)(=O)Nc1ccc2nc(NC(=O)C3CCN(C)CC3)sc2c1 [U90] | > 100000 nM | 1000 to 100000 nM | 
CCc1c(-c2ccc3n[nH]cc3c2)cnc(CNC(=O)OC(C)C)c1-c1ccc(O)cc1 [U76] | 1000 to 100000 nM | 1000 to 100000 nM | 
O=C(CCc1ccccc1)N1CCC(O)(Cn2cnc3cc(Cl)ccc3c2=O)CC1 [U26] |  | 1000 to 100000 nM | 

Other lines, results leading:

IC50 (USP7) | Kd (USP7 CD + UBL 1-5; [1]) | Kd (USP7 CD + UBL 1-5; [2]) | Structure (SMILES)
< 1000 nM | < 1000 nM | < 1000 nM | C[C@H](CC(=O)N1CCC(O)(Cn2cnc3c(C#CCO)csc3c2=O)CC1)c1ccccc1 [U1]
1000 to 100000 nM | 1000 to 100000 nM | 1000 to 100000 nM | CCc1c(-c2ccc(C(=O)NCCCNC(=O)OC(C)(C)C)nc2)cnc(N)c1-c1ccc(O)cc1 [U7]
1000 to 100000 nM | 1000 to 100000 nM |  | CCc1c(-c2ccc(C(=O)NC)nc2)ccc(NCCN=[N+]=[N-])c1-c1ccc(O)cc1 [U70]
1000 to 100000 nM | 1000 to 100000 nM |  | CCc1c(-c2ccc(C(=O)NCCCNC(=O)CCNC(=O)OC(C)(C)C)nc2)cnc(N)c1-c1ccc(O)cc1 [U53]
< 1000 nM |  | < 1000 nM | C[C@H](CC(=O)N1CCC(O)(Cn2cnc3c(-c4ccc(CNC(=O)CCNC(=O)OC(C)(C)C)cc4)n(C)nc3c2=O)CC1)c1ccccc1 [U134]
1000 to 100000 nM | 1000 to 100000 nM |  | CCOC(=O)NCc1ccc(-c2ccc3n[nH]cc3c2)c(CC)c1-c1ccc(O)cc1 [U78]
1000 to 100000 nM | 1000 to 100000 nM |  | Cn1nc2c(=O)n(CC3(O)CCN(C(=O)C[C@H](c4ccccc4)C(F)(F)F)CC3)cnc2c1Br [U38]
1000 to 100000 nM | 1000 to 100000 nM |  | CCc1c(-c2ccc(C(=O)NCCCNC(=O)CCOCCOCCOCCNC(=O)OC(C)(C)C)nc2)cnc(N)c1-c1ccc(O)cc1 [U57]
1000 to 100000 nM | 1000 to 100000 nM |  | CCc1c(-c2ccc(OCCN)cc2)cnc(N)c1-c1ccc(O)cc1 [U21]
1000 to 100000 nM | < 1000 nM |  | C[C@H](CC(=O)C1CCC(O)(Cn2cnc3cc(C#CCN=[N+]=[N-])ccc3c2=O)CC1)c1ccccc1 (some centres unmarked) [U28]
< 1000 nM | < 1000 nM | < 1000 nM | Cc1cc(Cl)cc(-c2ccnc3cc(CN4C(=O)CCC4=O)sc23)c1OC1CCN(CCCCCCCNC(=O)OC(C)(C)C)CC1 [U30]
< 1000 nM | < 1000 nM |  | C[C@H](CC(=O)N1CCC(O)(Cn2cnc(NCCN3CCN(CCN=[N+]=[N-])CC3)cc2=O)CC1)c1ccccc1 [U69]
< 1000 nM | < 1000 nM |  | Cc1cc(Cl)cc(-c2ccnc3cc(CN4C(=O)CCC4=O)sc23)c1CC1CCN(C(=O)CN)CC1 [U22]
< 1000 nM | < 1000 nM |  | CCc1c(-c2ccc(C(=O)NCCN)nc2)cnc(N)c1-c1ccc(O)cc1 [U61]
< 1000 nM | < 1000 nM | < 1000 nM | C[C@H](CC(=O)N1CCC(O)(Cn2cnc3c(-c4ccc(CNC(=O)OC(C)(C)C)cc4)n(C)nc3c2=O)CC1)c1ccccc1 [U14]
< 1000 nM | < 1000 nM | < 1000 nM | C[C@H](CC(=O)N1CCC(O)(Cn2cnc3cc(NCCN(C)CCCNC(=O)OC(C)(C)C)ccc3c2=O)CC1)c1ccccc1 [U6]
< 1000 nM |  | < 1000 nM | C[C@H](CC(=O)N1CCC(O)(Cn2cnc3c(-c4ccc(CNC(=O)CCCCCCNC(=O)OC(C)(C)C)cc4)n(C)nc3c2=O)CC1)c1ccccc1 [U132]
< 1000 nM | < 1000 nM |  | Cc1cc(Cl)cc(-c2ccnc3cc(CN4C(=O)CCC4=O)sc23)c1OC1CCN(CCCNC(=O)CCNC(=O)OC(C)(C)C)CC1 [U39]
< 1000 nM | < 1000 nM |  | Cc1cc(Cl)cc(-c2ccnc3cc(CN4C(=O)CCC4=O)sc23)c1OC1CCN(CCCNC(=O)CCCCCCNC(=O)OC(C)(C)C)CC1 [U40]
< 1000 nM | < 1000 nM | < 1000 nM | C[C@H](CC(=O)N1CCC(O)(Cn2cnc3cc(N(C)CCN(C)CCCNC(=O)OC(C)(C)C)ccc3c2=O)CC1)c1ccccc1 [U5]
< 1000 nM | < 1000 nM |  | C[C@H](CC(=O)N1CCC(O)(Cn2cnc(NCCN3CCN(CCN)CC3)cc2=O)CC1)c1ccccc1 [U37]
< 1000 nM | < 1000 nM |  | Cc1cc(Cl)cc(-c2ccnc3cc(CN4C(=O)CCC4=O)sc23)c1OC1CCN(C(=O)CN=[N+]=[N-])CC1 [U19]
